According to US12629364B2, “Methods of treating cancers overexpressing CARM1 with EZH2 inhibitors and platinum-based antineoplastic drugs” (The Wistar Institute of Anatomy and Biology, priority 2016, dated 2026):

System: A1847 parental and CARM1 knockout cells
Test: Epigenetic targeting small molecule set screen (14-day colony formation)
Format: cell-based, Human
Conditions: A1847 parental vs CARM1 knockout; 14 days; normalized to vehicle
Procedure: FIG. 26 illustrates that CARM1-expressing cells are selectively sensitized to EZH2 inhibitors. Equal number of parental control or CARM1 knockout […] cells were plated and treated with each of the 23 individual epigenetic inhibitors for 14 days. The media with the inhibitors was refreshed every 3 days. Cell growth was quantified as integrated density using NIH Image J software. Quantification of the average integrated density graphed as a scatter plot. The X-axis indicates the relative growth of treated CARM1 high parental […] cells compared with DMSO vehicle controls. Y-axis indicates the relative growth of treated CARM1 knockout […] cells compared with DMSO vehicle controls. n=4; and error bars represents SEM. FIG. 27 illustrates a table of EZH2 inhibitors that are selective against CARM1 expression. CARM1-high parental controls and CARM1 knockout […] cells were treated with the indicated concentration of the small molecules in a 14-day colony formation assay. Integrated density for each well was calculated using NIH Image J software. The relative growth of the indicated cells was determined by normalizing to the vehicle control treated cells. n=4 and p-value was calculated using a two-tailed t-test. FIG. 28 illustrates representative images of colonies formed by the cells treated with the indicated inhibitors. GSK126 and UNC1999 representative positive hits from the screen. […] parental and CARM1 knockout cells were plated in 24-well plates and treated with 24 epigenetic compounds. Cell medium was changed every three days with appropriate drug doses for 14 days or until control wells became confluent. Colonies were washed twice with PBS and fixed with 10% methanol and 10% acetic acid in distilled water. Fixed colonies were stained with 0.005% crystal violet. Integrated density was measured using NIH ImageJ software as a surrogate for cell growth.

SMILES | selective growth suppression of CARM1-expressing versus CARM1 KO cells
CCCc1cc(C)[nH]c(=O)c1CNC(=O)c1cc(-c2ccc(N3CCN(C(C)C)CC3)nc2)cc2c1cnn2C(C)C [UNC1999, 1-isopropyl-6-(6-(4-isopropylpiperazin-1-yl)pyridin-3-yl)-N-((6-methyl-2-oxo-4-propyl-1,2-dihydropyridin-3-yl)methyl)-1H-indazole-4-carboxamide] | showed selectivity against CARM1-expressing cells
CC(=O)Nc1ccc(C(=O)Nc2ccccc2N)cc1 [CI994] | equally effective in suppressing the growth of both CARM-expressing and KO cells
